Values quoted from earlier work in PMC8537947, “Improved Radiolytic Stability of a ^68Ga-labelled Collagelin Analogue for the Imaging of Fibrosis” (Pharmaceuticals, 2021).

Experiments:
collagen I = conditions: initial cyclic peptide analogues, earlier work of the authors; cited from earlier work
Text: One of the targets for radioactive imaging agents is type I collagen which is the most abundant extracellular matrix protein [1, 2, 3, 4, 5, 6]. Collagelin, a cyclic peptide identified from the bacterial peptide library, presumably binds selectively to the triple helix structure of collagen. The aim of this study was to develop a PET tracer for the specific imaging of early active fibrosis via binding to monomer collagen. The uptake in bone, skin and other tissues rich in collagen cross-linked fibrils, and in diseased sites with established, mature collagen was expected to be low, ...

[1] = test system: frozen sections of dog heart affected by fibrosis; conditions: cited from earlier work
Text: The presence of excessive deposition of collagen was confirmed previously performing a Sirius Red histological assay on the adjacent tissue sections. The uptake of [^68Ga]Ga-NO2A-[Nle^13]-Col in the fibrotic tissue linearly correlated (R^2 = 0.84, Figure 2C) with the scoring of fibrosis, indicating a target density ranging between ...

Q: Which Kd (collagen I) does the source give for “c[CPGRVXHGLHLGDDEGPC] (disulfide) [[^68Ga]Ga-NO2A-Col]” here?
A: 2.3 ± 0.8 µM

Q: What about the target density [1] of the same substance?
A: 2.0 fmol/mm^3
